Experimental data published in patent US4900730A, “Preparation which promotes the absorption of peptides” (priority 1981, dated 1990).
No end group written: not given here.

Legend:
[1] = Rectal circulation with fatty acids as promoters (Example 15, Example 1 repeated)
Description: Absorption effects under conditions with various tonicities were examined.
The experiment was conducted in the following manner.
(The units in the Table are percents.)

[2] = Penicillin suppositories, concentration in plasma (Example 34); format: in vivo, S.D. male rats; details: Four fold tonicity suppository with 3.6% NaCl and 5% sodium adipate, intrarectal
Description: The dispersion was filled in a silicone tube (inner diameter 2.5 mm) to produce a rod-like suppository of 50 mg as a control suppository.
These suppositories were intrarectally administered to S.D. male rats (weighing about 250 g) and the concentration of Carbenicillin in blood was measured.
The concentration of Carbenicillin in blood was determined on sampled plasma by the use of Sarcina luteus ATCC 9341 in accordance with the conventional method.
The same experiment was effected on Dicloxacillin.Na.

[3] = rat, in vivo
Description: (§1) The experiment was conducted in the following manner. Sprague Dawley rats (male), weighing 200 to 300 g, were narcotized (after fast for 20 hours) with pentobarbital (50 mg/kg) and thereafter subjected to hypoabdominal incision for a first cannulation at a position about 1.5 cm from anus and also another cannulation at a position 5 cm above the first cannulation. Subsequently, the rectum was internally washed with about 50 ml of isotonic sodium chloride solution kept at 38° C., and samples each of 10 ml were circulated through rectum for 5 minutes (2 ml/minute) to make the concentration in the system constant. Then, 5 ml of each sample was circulated at a flow rate of 2 ml/minute, and samples each of 0.05 ml were collected at intervals of 10 minutes from 0 minute. Each sample was diluted to 5 ml with distilled water and the quantity of medicine disappeared by absorption was determined by UV spectrophotometer.
Quantities of 0.5 W/W % Cefmetazole.Na disappeared by absorption under isotonic and three-fold tonic conditions were determined, respectively, using sodium malate, sodium pyruvate, sodium phosphenolpyruvate, sodium β-hydroxybutyrate, sodium β-hydroxy glutarate, and sodium 2-phospho-D-glycerate.

[4] = Cephalothin concentration in blood after injection through anus (Example 6); format: in vivo, rat; details: with 6% sodium chloride and 1.0% disodium EDTA mono-ethylate vs 2% Cephalothin.Na control
Description: Using 2% solution of Cephalothin.Na (in 0.1M Tris-HCl buffer, pH 8.0) as Control, an injection agent was prepared by adding 6% sodium chloride and 1.0% disodium EDTA mono-ethylate to said solution.

[5] = Rectal circulation: Cephalothin disappeared by absorption (Examples 10-14, 16-18); details: rat, in vivo
Description: The experiments were conducted similarly as in Example 1. […] Each sample was diluted and the quantity of Cephalothin disappeared was determined by UV-spectrophotometer of high-speed liquid chromatography.

[6] = rabbit, in vivo, 250 mg/kg
[7] = rat, in vivo; remark: listed apart in the source
Description: as §1

[8] = Calcium concentration after intrarectal calcitonin preparation, relative effect (Example 8); format: in vivo, SD rats; details: after one hour, CVP and CT set at standard value of 1
[9] = Table 9, fatty acid 0.1 W/V %, Example 1 repeated, X 1
[10] = Table 9, fatty acid 0.1 W/V %, Example 1 repeated, X 4

Compound: CCCC(=O)O [Butyric acid, butyric acid]
- medicine disappeared by absorption, Osmotic pressure X 1 ([1]; rat, in vivo): 9.9 percents
- medicine disappeared by absorption, Osmotic pressure X 2 ([1]; rat, in vivo): 17.1 percents
- medicine disappeared by absorption, Osmotic pressure X 4 ([1]; rat, in vivo): 21.0 percents

Compound: CC1(C)S[C@@H]2[C@H](NC(=O)C(C(=O)O)c3ccccc3)C(=O)N2[C@H]1C(=O)O (stereo partly shown) [Carbenicillin.Na]
- Concentration in plasma 5 min. [2]: 5000 ng/mL
- Concentration in plasma 10 min. [2]: 14700 ng/mL
- Concentration in plasma 20 min. [2]: 11500 ng/mL
- Concentration in plasma 30 min. [2]: 8900 ng/mL
- Concentration in plasma 60 min. [2]: 5100 ng/mL
- Concentration in plasma 90 min. [2]: 3100 ng/mL
- Concentration in plasma 120 min. [2]: 1600 ng/mL

Compound: CO[C@@]1(NC(=O)CSCC#N)C(=O)N2C(C(=O)O)=C(CSc3nnnn3C)CS[C@@H]21 [Cefmetazole.Na]
- quantity of Cefmetazole.Na disappeared by absorption [3]: practically negligible

Compound: CC(=O)OCC1=C(C(=O)O)N2C(=O)[C@@H](NC(=O)Cc3cccs3)[C@H]2SC1 [Cephalothin.Na, reference compound]
- concentrations in blood [4]: significantly increased
- Cephalothin disappeared by absorption, Osmotic pressure (%) X 1 [5]: 1.2%
- Cephalothin disappeared by absorption, Osmotic pressure (%) X 2 [5]: 1.6%
- Cephalothin disappeared by absorption, Osmotic pressure (%) X 4 [5]: 3.1%
- Cephalothin disappeared by absorption, Osmotic pressure X 1 [5]: 1.2 percents
- Cephalothin disappeared by absorption, Osmotic pressure X 2 [5]: 1.6 percents
- Cephalothin disappeared by absorption, Osmotic pressure X 4 [5]: 3.1 percents

Compound: Cc1onc(-c2c(Cl)cccc2Cl)c1C(=O)N[C@@H]1C(=O)N2[C@@H]1SC(C)(C)[C@@H]2C(=O)O [Dicloxacillin.Na]
- Concentration in plasma 5 min. [2]: 4500 ng/mL
- Concentration in plasma 10 min. [2]: 15400 ng/mL
- Concentration in plasma 20 min. [2]: 10500 ng/mL
- Concentration in plasma 30 min. [2]: 7500 ng/mL
- Concentration in plasma 60 min. [2]: 4600 ng/mL
- Concentration in plasma 90 min. [2]: 2900 ng/mL
- Concentration in plasma 120 min. [2]: 900 ng/mL

Compound: CCCCCCCCCC(=O)[O-].[Na+] [Sodium caprate, sodium caprate]
- medicine disappeared by absorption, Osmotic pressure X 1 [1, 9]: 5.2 percents
- medicine disappeared by absorption, Osmotic pressure X 4 [1, 10]: 8.6 percents

Compound: CCCCCC(=O)[O-].[Na+] [Sodium caproate, sodium caproate]
- medicine disappeared by absorption, Osmotic pressure X 1 [1, 9]: 10.4 percents
- medicine disappeared by absorption, Osmotic pressure X 2 ([1]; Table 9, fatty acid 0.1 W/V %, Example 1 repeated, X 2): 14.7 percents
- medicine disappeared by absorption, Osmotic pressure X 4 [1, 10]: 17.2 percents

Compound: CCCCCCCC(=O)[O-].[Na+] [Sodium caprylate, sodium caprylate]
- medicine disappeared by absorption, Osmotic pressure X 1 [1, 9]: 5.8 percents
- medicine disappeared by absorption, Osmotic pressure X 4 [1, 10]: 13.0 percents

Compound: CCCCCCCCCCCC(=O)[O-].[Na+] [Sodium laurate, sodium laurate]
- medicine disappeared by absorption, Osmotic pressure X 1 [1, 9]: 3.9 percents
- medicine disappeared by absorption, Osmotic pressure X 4 [1, 10]: 6.5 percents

Compound: Colistin methane sulfonate sodium [Colistin methanesulfonate sodium]
- Excreted amount in urine (0-6 hr, %) [6]: 1.0%

Compound: Polymyxin B
- Excreted amount in urine (0-6 hr, %) [6]: 0.8%

Compound: Tuberactinomycin
- absorptions through rectum [7]: increased by the presence of EDTA.2Na and sodium chloride

Compound: calcitonin (CGNLSTCMLGTYTQDFNKFHTFPQTAIGVGAP; ends and bridges not checked; cysteine pairing not given here; UniProt P01258 85-116, looked up) [CT]
- relative effect on calcium concentration, Isotonic ([8]; glucose 0.25M): 1
- relative effect on calcium concentration, 6-fold tonic ([8]; glucose 1.5M): 1.67
- relative effect on calcium concentration, 3-fold tonic ([8]; glucose […]): 1.05
